Laboratory results reported in patent US7205298B2, “Substituted triazine kinase inhibitors” (Janssen Pharmaceutica N.V., priority 2002, dated 2007).

Assays:
[1] = molecular target: GSK-3 (beta isoform) (Oryctolagus cuniculus, UniProt G1T8E2); test: Kinase selectivity assay GSK-3; type: biochemical, rabbit
Experimental: (§1) Assays to test compound inhibition of other kinases were preformed using methods that measure the amount of phosphorylation of a biotinylated peptide substrate. Biotinylated peptide substrates were selected from the literature as appropriate for the enzyme being evaluated. The general procedure used to assay for kinase activity is as follows: a kinase reaction mix was prepared in 50 mM Tris-HCl pH=8, 10 mM MgCl2, 0.1 mM Na3VO4, 1 mM DTT, 10 μM ATP, 0.25–1 μM biotinylated peptide substrate, 0.2–0.8 μCuries per well ^33P-γ-ATP (2000–3000 Ci/mmol). Assay conditions vary slightly for each protein kinase, for example, insulin receptor kinase requires 10 mM MnCl2 for activity and Calmodulin-dependent protein kinase requires calmodulin and 2 mM CaCl2. The reaction mixture was dispensed into the wells of a streptavidin coated Flashplate and 1 μL test compound in 100% DMSO was added to a 100 μL reaction volume resulting in a final concentration of 1% DMSO in the reaction. Enzyme was diluted in 50 mM Tris-HCl pH=8.0, 0.1% BSA and added to each well. The reaction was incubated for one hour at 30° C. in the presence of a test compound. […] The plate was read on a scintillation counter to determine ^33P-γ-ATP incorporated into the immobilized peptide substrate. […] A maximum and minimum signal for the assay was determined on each plate. […]

[2] = molecular target: T1, Casein Kinase 2 (Homo sapiens, UniProt P68400); test: Kinase selectivity assay Casein Kinase 2; type: biochemical
T1 construct: purchased New England Biolabs 6010; host or cells: E. coli
Experimental: as §1

[3] = molecular target: T2, CDK1:Cyclin-B (Homo sapiens, UniProt P06493); test: CDK1 Screening Assay; type: biochemical
T2 construct: purchased New England Biolabs 6020; host or cells: insect cells
Experimental: A kinase reaction mixture was prepared containing 50 mM Tris-HCl pH=8, 10 mM MgCl2, 0.1 mM Na3PO4, 1 mM DTT, 10 μM ATP, 0.025 μM biotinylated histone-H1 peptide substrate (also referred to herein as a CDK-1 peptide substrate, see substrate table) and 0.2 μCuries per well ^33P-γ-ATP (2000–3000 Ci/mmol). 70 μL of the kinase reaction mixture was dispensed into the well of a streptavidin coated FlashPlate™ (Cat. # SMP 103, NEN, Boston, Mass.). Then 1 μL of test compound stock in 100% DMSO was added to the wells resulting in a final concentration of 1% DMSO in the reaction with a 100 μl final reaction volume. Next, CDK1:Cyclin-B protein (New England Biolads, infra) was diluted in 50 mM Tris-HCl pH=8.0, 0.1% BSA at a concentration of 1 ng per μL and 30 μl (30 ng enzyme per test well) was added to each well to initiate the reaction. The reaction was incubated for one hour at 30° C. At the end of the 1-hour incubation, the reaction was terminated by aspirating the reaction mixture from the plate and washing the wells twice with PBS containing 100 mM EDTA. The histone-H1 biotinylated peptide substrate became immobilized on the Flashplate™ (Perkin Elmer, NEN Boston, Mass.) and the incorporation of ^33P-γ-ATP was measured by reading the plate on a scintillation counter. Inhibition of the enzymatic activity of CDK1 was measured by observing a reduced amount of ^33P-γ-ATP incorporated into the immobilized peptide.
Assays to test compound inhibition of other kinases were preformed using methods that measure the amount of phosphorylation of a biotinylated peptide substrate. Biotinylated peptide substrates were selected from the literature as appropriate for the enzyme being evaluated. The general procedure used to assay for kinase activity is as follows: a kinase reaction mix was prepared in 50 mM Tris-HCl pH=8, 10 mM MgCl2, 0.1 mM Na3VO4, 1 mM DTT, 10 μM ATP, 0.25–1 μM biotinylated peptide substrate, 0.2–0.8 μCuries per well ^33P-γ-ATP (2000–3000 Ci/mmol). Assay conditions vary slightly for each protein kinase, for example, insulin receptor kinase requires 10 mM MnCl2 for activity and Calmodulin-dependent protein kinase requires calmodulin and 2 mM CaCl2. The reaction mixture was dispensed into the wells of a streptavidin coated Flashplate and 1 μL test compound in 100% DMSO was added to a 100 μL reaction volume resulting in a final concentration of 1% DMSO in the reaction. Enzyme was diluted in 50 mM Tris-HCl pH=8.0, 0.1% BSA and added to each well. The reaction was incubated for one hour at 30° C. in the presence of a test compound. After one hour the reaction mix was aspirated from the plate and the plate was washed with PBS containing 100 mM EDTA. The plate was read on a scintillation counter to determine ^33P-γ-ATP incorporated into the immobilized peptide substrate. Test compounds were assayed in duplicate at 8 concentrations (100 μM, 10 μM, 1 μM, 100 nM, 10 nM, 1 nM, 100 pM, 10 pM). A maximum and minimum signal for the assay was determined on each plate. […] Known inhibitor compounds appropriate for the kinase being assayed were also included on each plate.
The form of VEGF-R (vascular endothelial growth factor receptor-2) used was a fusion protein containing a polyhistidine tag at the N-terminus followed by amino acids 786–1343 of the rat VEGF-R2 kinase domain (GenBank Accession #U93306). The form of CDK1 (cyclin dependent kinase 1) used was isolated from insect cells expressing both the human CDK1 catalytic subunit and its positive regulatory subunit cyclin B (CDK1:cyclin B protein, New England Biolabs, Beverly, Mass., Cat. #6020). The form of CDK4 (cyclin dependent kinase 4) used contains amino acids 769 to 921 of the mouse […] protein found in the GST-retinoblastoma protein construct (Santa Cruz Biotechnology, Santa Cruz, Calif.; Cat. #SC-4112). The form of EGF-R1 (epidermal growth factor receptor 1) used was purified from human A431 cell membranes (Sigma, St. Louis, Mo., Cat.# E3641). […]

[4] = molecular target: T3, Calmodulin Kinase (calmodulin-dependent protein kinase 2) (Rattus norvegicus, UniProt P11275); test: Kinase selectivity assay Calmodulin Kinase; type: biochemical
T3 construct: purchased New England Biolabs 6060; host or cells: insect cells
Experimental: as §1

T2 sequence (P06493 whole entry): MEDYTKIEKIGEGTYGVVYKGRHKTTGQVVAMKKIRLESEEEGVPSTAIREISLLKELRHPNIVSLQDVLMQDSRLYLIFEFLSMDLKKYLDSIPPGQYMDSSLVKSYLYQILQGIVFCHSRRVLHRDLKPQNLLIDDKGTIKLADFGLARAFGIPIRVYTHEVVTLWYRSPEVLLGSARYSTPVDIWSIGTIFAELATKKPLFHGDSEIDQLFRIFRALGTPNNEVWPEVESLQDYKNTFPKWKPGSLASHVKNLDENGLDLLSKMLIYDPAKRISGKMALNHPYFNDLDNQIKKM
T2 sequence (P14635 whole entry partner): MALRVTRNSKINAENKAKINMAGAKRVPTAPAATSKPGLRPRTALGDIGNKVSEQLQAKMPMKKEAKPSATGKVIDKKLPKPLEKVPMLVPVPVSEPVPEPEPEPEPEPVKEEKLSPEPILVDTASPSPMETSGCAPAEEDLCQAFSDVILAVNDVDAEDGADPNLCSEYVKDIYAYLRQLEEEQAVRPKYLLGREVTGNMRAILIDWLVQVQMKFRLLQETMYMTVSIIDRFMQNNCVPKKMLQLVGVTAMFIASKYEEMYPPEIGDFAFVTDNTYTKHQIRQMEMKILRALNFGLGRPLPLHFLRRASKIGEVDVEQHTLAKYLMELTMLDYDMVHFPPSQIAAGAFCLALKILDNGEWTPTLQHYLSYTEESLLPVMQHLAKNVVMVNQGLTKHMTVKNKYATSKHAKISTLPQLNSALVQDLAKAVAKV
GSK-3 (beta isoform), sequence (G1T8E2 1-432): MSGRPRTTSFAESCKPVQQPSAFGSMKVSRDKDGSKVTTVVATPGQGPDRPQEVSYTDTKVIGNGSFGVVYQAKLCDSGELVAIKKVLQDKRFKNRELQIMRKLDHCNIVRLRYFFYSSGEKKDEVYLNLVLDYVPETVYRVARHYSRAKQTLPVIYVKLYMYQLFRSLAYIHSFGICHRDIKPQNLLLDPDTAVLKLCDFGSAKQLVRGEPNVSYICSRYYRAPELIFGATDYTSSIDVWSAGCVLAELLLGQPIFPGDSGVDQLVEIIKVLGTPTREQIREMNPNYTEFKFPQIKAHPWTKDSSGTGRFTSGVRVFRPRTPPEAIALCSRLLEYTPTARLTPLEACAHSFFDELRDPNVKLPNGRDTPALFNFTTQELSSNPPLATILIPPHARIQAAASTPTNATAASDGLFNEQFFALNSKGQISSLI
T1 sequence (P68400 whole entry): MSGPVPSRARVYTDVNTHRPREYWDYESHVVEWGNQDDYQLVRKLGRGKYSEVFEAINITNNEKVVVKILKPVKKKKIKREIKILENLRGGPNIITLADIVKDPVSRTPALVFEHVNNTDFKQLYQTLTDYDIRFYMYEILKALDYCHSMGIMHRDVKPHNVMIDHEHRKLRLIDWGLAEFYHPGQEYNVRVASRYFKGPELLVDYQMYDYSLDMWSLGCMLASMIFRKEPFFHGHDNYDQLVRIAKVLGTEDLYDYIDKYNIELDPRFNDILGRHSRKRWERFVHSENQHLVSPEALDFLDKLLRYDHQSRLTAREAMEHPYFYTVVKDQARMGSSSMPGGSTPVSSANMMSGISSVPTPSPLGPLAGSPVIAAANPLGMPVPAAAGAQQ
T1 sequence (P67870 whole entry partner): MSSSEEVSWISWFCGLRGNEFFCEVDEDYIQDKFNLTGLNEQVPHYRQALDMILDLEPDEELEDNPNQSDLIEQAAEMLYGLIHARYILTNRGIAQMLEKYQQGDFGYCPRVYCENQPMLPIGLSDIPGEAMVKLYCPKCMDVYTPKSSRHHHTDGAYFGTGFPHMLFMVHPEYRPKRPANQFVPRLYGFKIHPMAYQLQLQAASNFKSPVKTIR

SMILES | IC50 [1] | IC50 [2] | IC50 [3] | IC50 [4]
OCCCNc1cncc(-c2ncnc(Nc3cccc(Cl)c3)n2)c1 [Compound 1, 3-((5-(4-((3-chlorophenyl)amino)-1,3,5-triazin-2-yl)-3-pyridinyl)amino)-1-propanol] | 5 nM | 926 nM | 39 nM | 54.2 µM
OCCCNc1cc(-c2ncnc(Nc3cccc(Cl)c3)n2)ccn1 [Compound 2, 3-((4-(4-((3-chlorophenyl)amino)-1,3,5-triazin-2-yl)-2-pyridinyl)amino)-1-propanol] | 17 nM | > 100000 nM | 16 nM | > 10 µM
